One compound from ChEMBL document CHEMBL6083204, “Synthesis of a celastrol derivative as a cancer stem cell inhibitor through regulation of the STAT3 pathway for treatment of ovarian cancer” (RSC Med Chem, 2024) can be followed below.

pIC50: −log10 of the molar value. The source made the active and inactive calls. No cut-off for these calls is given here.

Data set [1] has as its system SK-OV-3. The data set is described as follows: Induction of apoptosis in human SK-OV-3 cells assessed as viable cells at 0.8 uM incubated for 24 hrs by Annexin V-FITC/7-AAD staining based flow cytometry (reference value: 94.6 %). Format: functional. To be noted: read-out: Activity.
The test system of data set [2] is A2780. Kind of data set: Induction of cell cycle arrest in human A2780 cells assessed as accumulation of cells at G0/G1 phase at 0.4 uM incubated for 24 hrs by BrdU staining based flow cytometry (reference value: 42.4 %). Type of data set: functional.
The nature of data set [3]: Toxicity in BALB/c mouse xenografted with human SK-OV-3 cells assessed as pathological change in spleen at 2 to 5 mg/kg,ip administrated for 21 consecutive days by hematoxylin and eosin staining based assay. Type of data set: organism-based. Particulars: in vivo, dose 2-5 mg/kg. (In general: A xenograft is tissue or cells of one species grown in another, often human tumour cells in immunodeficient mice.)

The test system of data set [4] is SK-OV-3. The data set is described as follows: Induction of cell cycle arrest in human SK-OV-3 cells assessed as reduction of CDK4 expression at 0.2 uM incubated for 24 hrs by flow cytometry (reference value: 66.8 %). Type of data set: functional. The arrangement: scale not given: the % may be the effect or the level left. (In general: Flow cytometry measures light scatter and fluorescence of single cells or particles in a stream.)

The target in data set [5] is Tyrosine-protein kinase JAK2 (Homo sapiens) (UniProt O60674). The data set is described as follows: Inhibition of JAK2 in human SK-OV-3 cells assessed as downregulation of JAK2 expression at 0.1 to 0.4 uM incubated for 24 hrs by Western blotting analysis. Format: cell-based. Particulars: dose 0.1-0.4 µM.
Chain of Tyrosine-protein kinase JAK2 (Homo sapiens) (O60674 whole entry): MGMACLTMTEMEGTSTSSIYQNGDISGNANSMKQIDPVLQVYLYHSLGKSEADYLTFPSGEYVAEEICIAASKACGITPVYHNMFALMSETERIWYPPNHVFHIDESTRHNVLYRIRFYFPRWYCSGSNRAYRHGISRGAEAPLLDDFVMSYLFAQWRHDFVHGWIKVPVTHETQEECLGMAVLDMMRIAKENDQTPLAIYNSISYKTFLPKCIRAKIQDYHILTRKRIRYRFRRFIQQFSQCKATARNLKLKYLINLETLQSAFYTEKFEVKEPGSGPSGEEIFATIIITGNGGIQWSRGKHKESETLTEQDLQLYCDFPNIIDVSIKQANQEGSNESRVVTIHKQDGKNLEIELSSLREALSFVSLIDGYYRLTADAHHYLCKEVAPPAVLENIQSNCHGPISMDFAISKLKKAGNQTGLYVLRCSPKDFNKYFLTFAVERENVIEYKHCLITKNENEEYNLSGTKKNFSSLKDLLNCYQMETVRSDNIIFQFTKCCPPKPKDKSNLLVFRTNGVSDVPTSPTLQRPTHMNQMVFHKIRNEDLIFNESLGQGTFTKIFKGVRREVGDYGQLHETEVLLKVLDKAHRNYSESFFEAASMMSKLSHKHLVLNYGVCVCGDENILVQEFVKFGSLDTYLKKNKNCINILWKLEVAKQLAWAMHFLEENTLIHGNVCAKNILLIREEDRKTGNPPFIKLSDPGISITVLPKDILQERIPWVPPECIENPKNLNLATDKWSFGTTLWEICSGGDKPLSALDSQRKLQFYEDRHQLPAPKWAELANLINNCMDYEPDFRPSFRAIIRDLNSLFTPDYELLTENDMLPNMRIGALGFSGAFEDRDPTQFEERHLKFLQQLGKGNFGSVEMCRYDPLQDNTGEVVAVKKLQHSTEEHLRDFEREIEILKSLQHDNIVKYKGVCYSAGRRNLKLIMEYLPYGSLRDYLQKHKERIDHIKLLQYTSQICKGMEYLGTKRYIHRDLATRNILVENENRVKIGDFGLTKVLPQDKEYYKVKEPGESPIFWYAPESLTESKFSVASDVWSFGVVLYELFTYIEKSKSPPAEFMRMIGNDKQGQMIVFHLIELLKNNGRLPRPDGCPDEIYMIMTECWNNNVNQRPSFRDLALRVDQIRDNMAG
For data set [6], the system named is A2780. Kind of data set: Inhibition of colony formation in human A2780 cells assessed as reduction in colony size incubated for 10 days by crystal violet staining based analysis. Type of data set: functional, cell-based. To be noted: time 10.0 day.
The subject of data set [7] is SK-OV-3. The data set is described as follows: Induction of apoptosis in human SK-OV-3 cells assessed as viable cells at 0.4 uM incubated for 24 hrs by Annexin V-FITC/7-AAD staining based flow cytometry (reference value: 94.6 %). Format: functional. Particulars: read-out: Activity.
In data set [8] the target is Signal transducer and activator of transcription 3 (Homo sapiens) (UniProt P40763). The data set is described as follows: Inhibition of STAT3 in human SK-OV-3 cells assessed as downregulation of total STAT3 expression incubated for 24 hrs by Western blotting analysis. Format: cell-based. A general note: In western blotting, separated proteins are transferred to a membrane and probed.
Chain of Signal transducer and activator of transcription 3 (Homo sapiens) (P40763 whole entry): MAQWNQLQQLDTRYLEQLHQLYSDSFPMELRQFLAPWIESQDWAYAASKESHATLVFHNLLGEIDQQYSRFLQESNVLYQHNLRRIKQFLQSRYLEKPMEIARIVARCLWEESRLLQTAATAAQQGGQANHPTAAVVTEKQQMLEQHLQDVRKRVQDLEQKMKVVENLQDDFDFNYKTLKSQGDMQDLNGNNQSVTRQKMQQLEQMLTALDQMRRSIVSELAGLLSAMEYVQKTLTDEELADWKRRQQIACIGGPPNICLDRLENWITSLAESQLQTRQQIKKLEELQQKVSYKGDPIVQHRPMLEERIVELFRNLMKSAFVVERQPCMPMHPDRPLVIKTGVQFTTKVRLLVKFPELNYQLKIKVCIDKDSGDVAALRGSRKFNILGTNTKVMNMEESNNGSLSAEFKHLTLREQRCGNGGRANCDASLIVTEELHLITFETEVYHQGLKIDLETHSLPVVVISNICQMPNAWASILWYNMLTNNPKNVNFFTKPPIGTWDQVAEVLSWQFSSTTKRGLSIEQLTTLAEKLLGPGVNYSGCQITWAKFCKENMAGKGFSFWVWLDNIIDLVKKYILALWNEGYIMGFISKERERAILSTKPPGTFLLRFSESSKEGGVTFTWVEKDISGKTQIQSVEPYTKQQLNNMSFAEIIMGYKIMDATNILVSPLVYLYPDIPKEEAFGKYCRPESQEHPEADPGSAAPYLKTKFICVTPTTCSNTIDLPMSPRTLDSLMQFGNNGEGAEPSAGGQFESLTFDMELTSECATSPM

For data set [9], the system named is A2780. Kind of data set: Induction of cell cycle arrest in human A2780 cells assessed as reduction of CDK2 expression at 0.8 uM incubated for 24 hrs by flow cytometry (reference value: 92.5 %). Format: functional. Also noted: scale not given: the % may be the effect or the level left.
The target in data set [10] is Signal transducer and activator of transcription 3 (Homo sapiens) (UniProt P40763). Kind of data set: Inhibition of STAT3 in human SK-OV-3 cells assessed as downregulation of STAT3 expression in nuclei at 0.2 uM incubated for 24 hrs by Hoechst33342 staining based immunofluorescence assay. Type of data set: cell-based.
Data set [11] relates to SK-OV-3. The data set is described as follows: Antiproliferative activity against human SK-OV-3 cells assessed as inhibition of cell growth incubated for 72 hrs by MTT assay. Type of data set: functional, cell-based. Particulars: SK-OV-3, 72 h.
Data set [12] concerns A2780. Kind of data set: Antiproliferative activity against human A2780 cells assessed as decrease in CD44 positive CD24 negative cells expression at 0.4 uM incubated for 24 hrs by FITC staining based flow cytometry (reference value: 28.13 %). Type of data set: functional. The arrangement: scale not given: the % may be the effect or the level left.

What is called pIC50 is the IC50 on a negative log10 scale, so that one unit is a factor of ten. `CC1=C(O)C(=O)C=C2C1=CC=C1[C@@]2(C)CC[C@@]2(C)[C@@H]3C[C@](C)(C(=O)N4CCNCC4)CC[C@]3(C)CC[C@]12C`: the viability at 0.8 µM in the data set with SK-OV-3 [1] worked out at 48%. Besides, the Activity with A2780 [2] is listed as 64.7%; in data set [3] it was “Non-toxic”; in the data set with SK-OV-3 [4], 67%; in the data set with A2780 [9], 8.6%; in the data set on A2780 [12] it was 2.93%. Moreover, the inhibition result in data set [5] and in data set [10] was “Active” throughout. Besides, the inhibition result (with A2780 [6]; in data set [8]) was “Dose-dependent-effect” in each case. The viability at 0.4 µM in the data set on SK-OV-3 [7] is 64.4%. Further, in the data set on SK-OV-3 [11], the negative-log IC50 (pIC50) was 6.68.
